According to patent US20110173718A1, “HERBICIDE TOLERANT PLANTS” (SYNGENTA CROP PROTECTION, INC., priority 2008, published 2011):
“And” between values parts separate entries of the source, which are not always exact repeats. Identical values can stand only once.

Key:
Format in all cases: in vivo
[1] = system: Tobacco (var Samsun) plantlets in agar; assay: HST + HPPD herbicide effects on tobacco seedlings in agar; details: for % Injury, plus Mesotrione (0.004 ppm) (EXPECTED): Colby expected; for % Injury, plus Mesotrione (0.004 ppm) (EXPECTED) / % Injury, plus Mesotrione (0.004 ppm) (OBSERVED) / % Injury (bleaching), haloxydine only / % Injury (O − E): agar, 7 DAT; for % Injury (O − E): observed minus expected
Procedure: Tobacco (var Samsun) plantlets germinated aseptically in agar made up in 1/3 strength Murashige and Skoog salts medium along with various doses of herbicide. Bleaching damage to emerging plantlets is assessed 7 DAT. The plantlets are kept covered under clear perspex and grown at 18° C. (night) and 24° C. (day) under a 16 h day (˜500-900 umol/m^2), 8 h darkness regime. Herbicide affected plantlets are bleached white and grow less. Synergistic/antagonistic responses are calculated using the Colby formula (Colby, S. R. (Calculating synergistic and antagonistic responses of herbicide Combinations”, Weeds, 15, p. 20-22, 1967).

[2] = system: Arabidopsis HST transgenic tobacco plants; assay: Glasshouse spray test, Arabidopsis HST transgenic tobacco; details: 25 gai/ha; D2 line (Arabidopsis HST, segregating T1), individual plants
tobacco leaf explants = assay: Tobacco leaf explants plated on NBM medium with haloxydine; details: 1 mg/1 haloxydine
Procedure: To roughly evaluate comparative levels of ectopic HST expression independent PCR positive tobacco shoots have young leaves removed, cut into 1 cm squares and plated onto NBM medium incorporating 1 mg/1 haloxydine. These leaf explants produce callus and ultimately regenerated shoots.

[3] = haloxydine 0.3 ppm + mesotrione 0.004 ppm
[4] = haloxydine 0.6 ppm + mesotrione 0.004 ppm
[5] = haloxydine 1.2 ppm + mesotrione 0.004 ppm
[6] = haloxydine 2.4 ppm + mesotrione 0.004 ppm
[7] = haloxydine 4.7 ppm + mesotrione 0.004 ppm
[8] = haloxydine 9.4 ppm + mesotrione 0.004 ppm
[9] = haloxydine 18.8 ppm + mesotrione 0.004 ppm
[10] = haloxydine 37.5 ppm + mesotrione 0.004 ppm

Oc1c(Cl)c(F)nc(F)c1Cl [Compound 1.1, haloxydine] was tested, and the “% Injury, plus Mesotrione (0.004 ppm) (EXPECTED)” value (from here on “% Injury … (EXPECTED)”) [1, 3] was 41.5%, the “% Injury … (EXPECTED)” value [1, 4] was 48% and the “% Injury … (EXPECTED)” value [1, 5] was 58%. For the same molecule, the “% Injury … (EXPECTED)” value [1, 6] was 67.5%, the “% Injury … (EXPECTED)” value [1, 7] was 80% and the “% Injury … (EXPECTED)” value [1, 8] was 94%. The “% Injury … (EXPECTED)” value [1, 9] was 100%, the “% Injury … (EXPECTED)” value [1, 10] was 100% and the “effect of adding a low dose of mesotrione on the herbicidal effect” value ([1]; agar grown tobacco plantlets) was “synergises”. For the same molecule, the “% Injury, plus Mesotrione (0.004 ppm) (OBSERVED)” value (“% Injury … (OBSERVED)” below) [1, 3] was 50%, the “% Injury (bleaching), haloxydine only” value ([1]; haloxydine 0.3 ppm) was 10% and the “% Injury … (OBSERVED)” value [1, 4] was 50%. For the same molecule, the “% Injury (bleaching), haloxydine only” value ([1]; haloxydine 0.6 ppm) was 20%, the “% Injury … (OBSERVED)” value [1, 5] was 70% and the “% Injury (bleaching), haloxydine only” value ([1]; haloxydine 1.2 ppm) was 35%. The “% Injury … (OBSERVED)” value [1, 6] was 90%, the “% Injury (bleaching), haloxydine only” value ([1]; haloxydine 2.4 ppm) was 50% and the “% Injury … (OBSERVED)” value [1, 7] was 100%. For the same molecule, the “% Injury (bleaching), haloxydine only” value ([1]; haloxydine 4.7 ppm) was 70%, the “% Injury … (OBSERVED)” value [1, 8] was 100% and the “% Injury (bleaching), haloxydine only” value ([1]; haloxydine 9.4 ppm) was 90%. The “% Injury … (OBSERVED)” value [1, 9] was 100%, the “% Injury (bleaching), haloxydine only” value ([1]; haloxydine 18.8 ppm) was 100% and the “% Injury … (OBSERVED)” value [1, 10] was 100%. For the same molecule, the “% Injury (bleaching), haloxydine only” value ([1]; haloxydine 37.5 ppm) was 100%, the “% Injury (O − E)” value [1, 3] was 8.5% and the “% Injury (O − E)” value [1, 4] was 2%. For the same molecule, the “% Injury (O − E)” value [1, 5] was 12%, the “% Injury (O − E)” value [1, 6] was 22.5% and the “% Injury (O − E)” value [1, 7] was 20%. The “% Injury (O − E)” value [1, 8] was 6%, the “% Injury (O − E)” value [1, 9] was 0% and the “% Injury (O − E)” value [1, 10] was 0%. For the same molecule, the “% damage at 7 DAT” value [2] was 55% (2×) and 35% and 65% (3×) and 100% and 30%, the “callus and shoot regeneration” value (tobacco leaf explants; explants over expressing HST) was “green callus and shoots” and the “callus and shoot regeneration” value (tobacco leaf explants; untransformed explants or transformants with limited HST expression) was “bleached callus and stunted bleached shoots that ultimately died”.
